From patent publication US11440932B2, “Surfactant compounds-clips for extraction and stabilization in solution of membrane proteins” (CENTRE NATIONAL DE LA RECHERCHE SCIENTIFIQUE, priority 2017, dated 2022)
Residues, ends and D or L forms follow the SMILES beside them. *: point of attachment. Palmitoyl = CCCCCCCCCCCCCCCC(=O)*

Tests used:
[1] = Critical micelle concentration (CMC) by DPH fluorescence; format: physicochemical; conditions: 50 mM tris-HCl, pH 8.0
Protocol: FIG. 4 represents the fluorescence (%) of DPH (1,6-diphenyl-1,3,5-hexatriene) in the presence of increasing concentrations (0.0001 mM, 0.001 mM, 0.01 mM, 0.1 mM, 1 mM and 10 mM) of clips (compounds of the invention), exemplified with the compounds #3.7e (C13, points represented by squares) and 3.7f (C18, points represented by circles). The experiment is carried out in triplicates. In accordance with Chattopadhyay, A. & London, E ([22]), the CMC corresponds to the concentration at which the breakage in the slope is observed, here at 20 μM for 3.7f and 2 mM for 3.7e (black symbols).
Procedure. The molecules of the invention were prepared in a range of concentrations extending from 0.1 μM to 10 mM in 50 mM tris-HCl, pH 8.0 and neutralized at this pH. To 80 μl of each solution (triplicate), the same volume of 10 μM of 1,6-diphenyl-1,3,5-hexatriene (DPH, Sigma, D208000) is added, prepared at 100 μM in tetrahydrofuran then diluted 10-fold in H2O. The increase in the fluorescence of the DPH occurs when the latter find micelles of clips into which it can insert itself (Chattopadhyay, A. & London, E. Fluorimetric determination of critical micelle concentration avoiding interference from detergent charge. Anal Biochem 139, 408-412 (1984) ([22])). The fluorescence is read with a Xenius SAFAS fluorimeter by exciting at 358 nm and recording the fluorescence emission at 430 nm, with slits of 9 to 10 nm for the excitation and the emission and a gain of 100 to 150, depending on the cases.
Results. The CMC of the detergents is the concentration starting from which they associate with one another to form micelles, in which, in aqueous solution, the hydrophobic portions are grouped together at the center and the hydrophilic regions are exposed to the solvent. […] A typical result obtained with a compound 3.7 provided with a C13 (3.7e) or C18 ([…]) aliphatic chain is illustrated in FIG. 4.

[2] = Diameter of micelles by dynamic light scattering (DLS); format: physicochemical; conditions: estimated micelle diameter by DLS; 30 mM tris-HCl, pH 8.0
Protocol: FIG. 5 depicts the dynamic light scattering (DLS) of clips, in intensity (%, column A on the left) and in number (%, column B on the right), as a function of the […] (nm). The estimated diameters are indicated on each panel (column A). Columns A and B, from top to bottom: compound 3.7c (10 mM, 5×CMC), compound 3.7d (10 mM, 5×CMC), compound 3.7e (2 mM, […]), compound 3.7f (10 mM, 500×CMC), compound 3.7h (1 mM, 100×CMC), compound 3.7j (2 mM, 100×CMC), compound 3.9a (1 mM, 50×CMC).
Another physicochemical parameter of the micelles of detergents is their diameter, assuming that they are spherical. This dimension is obtained by the light scattering (DLS) technique.
Procedure. The molecules of the invention tested were prepared in a range of concentrations extending from 0.1 to 1000×CMC in 30 mM tris-HCl, pH 8.0 and neutralized at this pH. The solutions are filtered on 0.22 μm. The measurement is carried out on 100 μl, in triplicate on a Zetasizer Nano-S from Malvern Instruments.

BmrA [3] = molecular target: T1, BmrA (Bacillus subtilis, UniProt O06967); test: Extraction of BmrA from membranes (SDS-PAGE of supernatant); set-up: species or system bacterial; overexpressed in E. coli C41DE3; conditions: detergent 10 g/l unless indicated otherwise; 2 h at 4° C.
T1 construct: His tag; made in house; host or cells: E. coli C41(DE3)
Protocol: (§1) FIG. 6 depicts the extraction of the membrane proteins BmrA (panels A and C) and AcrB (panels B and D) using commercial detergents and the molecules of the invention (panels A and B, from left to right): SDS, DDM, FC12, TX100, compounds of the invention 1.4, 1.5, 2.3a, 2.3b, 2.3c, 2.3d, 2.3e, 2.3f, 2.3g, 2.3h, 2.3i, 3.7a, 3.7b; panel C: compounds of the invention 3.7c 0.8%, 3.7d 0.16%, 3.7e 0.8%, 3.7f 0.3%, 3.7g 0.4%, 3.7h 0.2%, 3.7i 0.07%, 3.7j 0.09%, 3.7k, 3.7l, 0.25%, 3.9a, 4.5a, 4.5b, 4.5c, 4.5d 0.34%, 4.6a, 4.6b, 4.6c, 4.6d, 5.3a, 5.3b, 5.3c 0.3%, 5.3d 0.3%; panel D: 3.7c, 3.7d, 3.7e, 3.7f, 3.7h, 3.7i 0.1%, 3.7j, 3.7k, 3.7l, 3.9a, 4.5a, 4.5b, 4.5c, 4.5d, 4.6a, 4.6b, 4.6c, 4.6d. The detergents are added at 10 g/l (1%), unless indicated otherwise. The equivalent of 20 μg of proteins of the extracted fraction after centrifugation at 100 000×g for 30 min is deposited on 10% SDS-PAGE, stained with Coomassie blue after migration. BmrA migrates in its monomeric form to the level of the 55 kDa band; AcrB migrates in its monomeric form to the level of the 100 kDa band. SDS=sodium dodecyl sulfate; DDM=β-D-dodecyl maltoside; FC12=foscholine-12; TX100=triton X-100.
(§2) The extraction capacity of the detergents of the series is tested on membranes in which BmrA or AcrB are strongly expressed. The extraction with the clips (molecules of the invention) is compared to that obtained with commercial detergents, used as reference.
(§3) Procedure. BmrA represents 25% of the proteins present in the overexpression system used (E. coli, C41DE3). These membranes are prepared as described previously (Matar-Merheb, R. et al. ([11])). The membranes containing AcrB (approximately 20% of the membrane proteins, same expression system as BmrA) were prepared as described previously (Seeger, M. A. et al. ([21])). The detergents are used at 10 g/l unless indicated otherwise, and the proteins diluted at 2 g/l in a 20 mM Tris-HCl buffer, pH 8.0, 100 mM NaCl, 15% glycerol, with protease inhibitors (Roche) added thereto at an amount of one tablet/100 ml. The mixture (T) is incubated for 2 h at 4° C. then centrifuged for 1 h at 4° C. at 100 000×g in order to separate the extracted fraction (supernatant, S) from that which is not extracted (pellet). The supernatants are deposited on 10% SDS-PAGE and stained with Coomassie blue after migration. The foscholine 12, DDM and LMNG originate from Anatrace, the SDS and Triton X100 originate from Sigma-Aldrich.

AcrB = molecular target: T2, AcrB (Escherichia coli, UniProt P31224); test: Extraction of AcrB from membranes (SDS-PAGE of supernatant); set-up: species or system bacterial; same expression system (E. coli C41DE3); conditions: detergent 10 g/l unless indicated otherwise; 2 h at 4° C.
T2 construct: made in house; host or cells: E. coli C41(DE3)
Protocol: as §1, §2, §3

BmrA [4] = molecular target: T1, BmrA; test: ATPase activity of BmrA after addition of detergents; format: biochemical, bacterial; produced in E. coli C41 DE3
Protocol: FIG. 7 depicts the effect of the detergents of the invention on the functionality of BmrA (ATPase activity, %). The membrane fraction enriched in BmrA (˜25%) diluted to 2 g/l has the compounds added to it at the concentrations (mM) indicated (panel A, from top to bottom: 3.7e 10.7 mM, 3.7e 8.6 mM, 3.7e 6.4 mM, 3.7e 4.3 mM, 3.7e 2.2 mM, 3.7e 1.1 mM, 3.7d 4 mM, 3.7d 3 mM, 3.7d 2 mM, 3.7d 1 mM, 3.7d 0.8 mM, 3.7d 0.6 mM, 3.7d 0.05 mM, 3.7d 0.03 mM, 3.7d 0.02 mM, 3.7c 13 mM, 3.7c 10.4 mM, 3.7c 10 mM, 3.7b 1.5 mM, 3.7b 0.7 mM, 3.7b 0.5 mM, 2.3gNa2 20.5 mM, 2.3gK2 19.3 mM, 2.3f 21.1 mM, 2.3e 22 mM, 2.3d 23.2 mM, 2.3a 3.2 mM, 1.5a 22 mM, DDM 20 mM, DDM 2 mM, DDM 10 mM, DOM 2 mM, DDM 1 mM, LMNG 10 mM, LMNG 1 mM, LMNG 0.1 mM, LMNG 0.01 mM, FA3 27 mM, FA3 9 mM, FA3 2 mM, FA3 1 mM, TX100 16 mM; panel B from top to bottom: compounds of the invention 5.3d 3.2 mM, 5.3c 3.3 mM, 5.3b 11.7 mM, 5.3b 2.9 mM, 5.3a 3 mM, 4.6c 14.6 mM, 4.6b 15.2 mM, 4.5c 18.6 mM, 4.5b 19.6 mM, 3.9a 8 mM, 3.9a 0.51 mM, 3.9a 0.31 mM, 3.9a 0.11 mM, 3.7l 12.01 mM, 3.7l 6.01 mM, 3.7l 3 mM, 3.7l 1 mM, 3.7k 10 mM, 3.7k 3 mM, 3.7j 3 mM, 3.7j 2 mM, 3.7j 1 mM, 3.7j 0.6 mM, 3.7j 0.03 mM, 3.7j 0.02 mM, 3.7j 1 mM, 3.7i 0.3 mM, 3.7h 3 mM, 3.7h 2 mM, 3.7h 1 mM, 3.7h 0.6 mM, 3.7h 0.58 mM, 3.7h 0.5 mM, 3.7h 0.35 mM, 3.7h 0.1 mM, 3.7h 0.5 mM, 3.7h 0.35 mM, 3.7h 0.1 mM, 3.7h 0.05 mM, 3.7h 0.03 mM, 3.7h 0.02 mM, 3.7g 12.5 mM, 3.7g 9 mM, 3.7g 7.5 mM, 3.7g 5 mM, 3.7g 3 mM, 3.7g 1 mM, 3.7f 3.2 mM, 3.7f 2 mM, 3.7f 1 mM, 3.7f 0.061 mM, 3.7f 0.031 mM, 3.7f 0.015 mM). After incubation for 2 h at 4° C., the ATPase activity is measured. The solutions are subsequently centrifuged for 1 h at 4° C., 100 000×g, and the supernatants deposited on 10% SDS-PAGE (cf. FIG. 8). The gray and black histograms correspond to the concentrations at which BmrA is partially (gray) or entirely (black) extracted, according to these SDS-PAGE. The ATPase activity is in % relative to that of the protein without compound, 0.7 μmol ATP hydrolyzed/min/mg of proteins.
The molecules of the invention which extract BmrA in the previous example were tested at different sub-solubilizing and solubilizing concentrations, to evaluate their impact on the native and functional state of the protein. The latter is monitored by the hydrolysis of ATP which is carried out by the protein during the transport cycle, coupled with translocation of the solute. As reported previously (Matar-Merheb, R. et al. ([11])), the ATPase activity of BmrA is a highly sensitive marker of the state of the protein, the latter being particularly sensitive to the detergents used during the extraction step, where said detergents replace the lipids on contact with the membrane protein.
Procedure. BmrA produced and enriched in the plasma membrane of E. coli C41 DE3 is prepared as described previously (Matar-Merheb, R. et al. ([11])). The membranes are diluted at 2 g/l in a 20 mM Tris-HCl buffer, pH 8.0, 100 mM NaCl, 15% glycerol, with protease inhibitors (Roche) added thereto at an amount of one tablet/100 ml. The mixture (T) is incubated for 2 h at 4° C. and the ATPase activity is measured using the coupled-enzyme system, separating off the vanadate-insensitive activity from the total activity, Centeno, F. et al. Expression of the sarcoplasmic reticulum Ca^2+-ATPase in yeast. FEBS Lett 354, 117-122 (1994) ([25])). The solutions are subsequently centrifuged for 1 h at 4° C. at 100 000×g in order to separate the extracted fraction (supernatant, S) from that which is not extracted (pellet). The supernatants are deposited on 10% SDS-PAGE and stained with Coomassie blue after migration (FIG. 8). DDM, LMNG (Chae, P. S. et al. ([6])), TritonX100 and FA3 (Lee, S. C. et al. (2013) ([9])) are tested as reference detergents. The DDM and LMNG originate from Anatrace, the Triton X100 originates from Sigma-Aldrich and the FA3 from Avanti-Polars.

T1 sequence (O06967 whole entry): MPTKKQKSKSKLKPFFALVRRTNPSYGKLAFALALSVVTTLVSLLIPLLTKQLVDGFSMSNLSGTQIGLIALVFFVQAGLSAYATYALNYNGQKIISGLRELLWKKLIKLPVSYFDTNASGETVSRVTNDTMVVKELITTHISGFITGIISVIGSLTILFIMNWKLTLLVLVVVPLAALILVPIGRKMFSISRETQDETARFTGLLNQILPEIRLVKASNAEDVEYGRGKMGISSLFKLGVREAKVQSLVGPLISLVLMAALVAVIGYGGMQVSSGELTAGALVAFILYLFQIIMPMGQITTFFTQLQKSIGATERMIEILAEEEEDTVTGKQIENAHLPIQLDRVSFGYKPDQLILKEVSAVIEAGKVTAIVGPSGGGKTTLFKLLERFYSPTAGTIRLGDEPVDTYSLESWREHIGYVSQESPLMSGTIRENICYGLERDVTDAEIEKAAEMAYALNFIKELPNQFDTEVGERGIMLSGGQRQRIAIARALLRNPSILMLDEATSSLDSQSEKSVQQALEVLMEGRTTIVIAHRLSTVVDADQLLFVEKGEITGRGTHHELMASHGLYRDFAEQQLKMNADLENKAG
T2 sequence (P31224 whole entry): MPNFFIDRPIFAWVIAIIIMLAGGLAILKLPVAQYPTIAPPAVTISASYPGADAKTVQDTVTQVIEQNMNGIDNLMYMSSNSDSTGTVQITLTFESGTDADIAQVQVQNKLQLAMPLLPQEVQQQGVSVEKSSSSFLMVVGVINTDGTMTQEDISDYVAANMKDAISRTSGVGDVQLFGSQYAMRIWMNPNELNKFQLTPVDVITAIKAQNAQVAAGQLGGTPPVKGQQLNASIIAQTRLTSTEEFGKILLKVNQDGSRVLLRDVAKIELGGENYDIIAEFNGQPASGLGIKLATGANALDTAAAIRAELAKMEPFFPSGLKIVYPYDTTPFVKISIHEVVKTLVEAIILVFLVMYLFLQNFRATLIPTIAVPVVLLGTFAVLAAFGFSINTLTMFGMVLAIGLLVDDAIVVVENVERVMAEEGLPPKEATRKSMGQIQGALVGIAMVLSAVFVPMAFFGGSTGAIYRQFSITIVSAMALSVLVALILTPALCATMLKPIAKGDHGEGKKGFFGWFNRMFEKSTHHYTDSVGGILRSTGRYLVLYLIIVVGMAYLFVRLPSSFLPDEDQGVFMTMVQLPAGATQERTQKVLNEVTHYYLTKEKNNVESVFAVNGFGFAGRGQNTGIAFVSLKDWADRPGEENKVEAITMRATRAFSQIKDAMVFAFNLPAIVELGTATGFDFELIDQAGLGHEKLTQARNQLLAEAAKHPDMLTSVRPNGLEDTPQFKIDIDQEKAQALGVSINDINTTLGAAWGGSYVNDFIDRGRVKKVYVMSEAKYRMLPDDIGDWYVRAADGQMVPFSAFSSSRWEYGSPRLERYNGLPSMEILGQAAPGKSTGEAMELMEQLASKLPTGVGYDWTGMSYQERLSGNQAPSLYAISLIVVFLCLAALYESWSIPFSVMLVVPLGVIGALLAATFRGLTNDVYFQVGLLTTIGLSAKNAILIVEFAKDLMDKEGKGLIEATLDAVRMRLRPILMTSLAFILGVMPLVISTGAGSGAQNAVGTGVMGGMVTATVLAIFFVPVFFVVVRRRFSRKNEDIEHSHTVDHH

## CCCCCCCCCCCCCCCCCCC(=O)N[C@@H](COCc1cn(CCO[C@@H]2OC(CO)[C@@H](O)C(O)C2O)nn1)C(=O)N[C@H](CCC(=O)O)C(=O)O (stereo partly shown) [Compound 3.7d]
[1]
  CMC: 0.02 mM
[2]
  Ø, nm: 5.5 nm
BmrA [3]
  extraction of BmrA: partially extracting
AcrB
  extraction of AcrB: extracting

## CCCCCCCCCCCCCCCCCCC(=O)N[C@@H](COCc1cn(CCOCCOCCOCCOCCOCCOC)nn1)C(=O)N[C@H](CCC(=O)O)C(=O)O [Compound 3.7h]
[1]
  CMC: 0.01 mM
[2]
  Ø, nm: 3-4 nm
BmrA [3]
  extraction of BmrA: extracting
AcrB
  extraction of AcrB: extracting

## CCCCCCCCCCC(CCCCCCCCCC)(CO[C@@H]1O[C@H](CO)[C@@H](O[C@H]2O[C@H](CO)[C@@H](O)[C@H](O)[C@H]2O)[C@H](O)[C@H]1O)CO[C@@H]1O[C@H](CO)[C@@H](O[C@H]2O[C@H](CO)[C@@H](O)[C@H](O)[C@H]2O)[C@H](O)[C@H]1O [LMNG, lauryl maltose neopentyl glycol, reference compound]
BmrA [4]; relative to protein without compound, at concentrations that solubilize/extract BmrA (LMNG 10 mM; DDM beyond 5 mM), 2 h at 4° C.
  ATPase activity of BmrA: 25%
BmrA [4]; up to 1 mM
  impact on the activity of BmrA: relatively low impact

## CCCCCCCCCCCCCCCC(=O)NC(CC(=O)O)C(=O)NC(CCC(=O)O)C(=O)O (stereo not drawn) [Compound 4.5d] (Palmitoyl-Asp-Glu-OH; configuration not given here)
[1]
  CMC: 1 mM
BmrA [3]
  extraction of BmrA: extracting
AcrB
  extraction of AcrB: extracting

## CCCCCCCCCC(=O)N[C@@H](CO)C(=O)N[C@H](CCC(=O)O)C(=O)O [Compound 2.3d] (HELM PEPTIDE1{[CCCCCCCCCC(=O)[*:2]].S.[dE]}$$$$V2.0)
[1]
  CMC: 2 mM
BmrA [3]
  extraction of BmrA: extracting
AcrB
  extraction of AcrB: extracting
